Data from PubChem BioAssay AID1918954 (Molecular Pharmacology Branch, DTP, NCI, 2023).

Tested on: MDA-MB-468 complex spheroids with HUVEC/MSC, viability
Test: Anticancer human tumor MDA-MB-468 cell line growth inhibition;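 also: spheroids exposed to agents for seven days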;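 as to viability, T/C: 100% = DMSO vehicle control viability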
Details: for IC50: curve of first compound; for viability, T/C: stronger effect = lower value
Procedure, shortened: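 Complex spheroids of tumor cells with HUVEC and human MSCs, exposed to iadademstat combined with other agents. Each agent tested in half-log steps from near clinical Cmax (else 10 microM top), DMSO ≤0.25%.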

[1] = second compound 0.1 µM, first compound 0.00316 µM
[2] = second compound 0.1 µM, first compound 0.01 µM
[3] = second compound 0.1 µM, first compound 0.0316 µM
[4] = second compound 0.1 µM, first compound 0.1 µM
[5] = second compound 0.1 µM, first compound 0.316 µM
[6] = second compound 0.1 µM, first compound 1 µM
[7] = second compound 0.316 µM, first compound 0.00316 µM
[8] = second compound 0.316 µM, first compound 0.01 µM
[9] = second compound 0.316 µM, first compound 0.0316 µM
[10] = second compound 0.316 µM, first compound 0.1 µM
[11] = second compound 0.316 µM, first compound 0.316 µM
[12] = second compound 0.316 µM, first compound 1 µM
[13] = second compound 1 µM, first compound 0.00316 µM
[14] = second compound 1 µM, first compound 0.01 µM
[15] = second compound 1 µM, first compound 0.0316 µM
[16] = second compound 1 µM, first compound 0.1 µM
[17] = second compound 1 µM, first compound 0.316 µM
[18] = second compound 1 µM, first compound 1 µM
[19] = second compound 3.16 µM, first compound 0.00316 µM
[20] = second compound 3.16 µM, first compound 0.01 µM
[21] = second compound 3.16 µM, first compound 0.0316 µM
[22] = second compound 3.16 µM, first compound 0.1 µM
[23] = second compound 3.16 µM, first compound 0.316 µM
[24] = second compound 3.16 µM, first compound 1 µM
[25] = second compound 10 µM, first compound 0.00316 µM
[26] = second compound 10 µM, first compound 0.01 µM
[27] = second compound 10 µM, first compound 0.0316 µM
[28] = second compound 10 µM, first compound 0.1 µM
[29] = second compound 10 µM, first compound 0.316 µM
[30] = second compound 10 µM, first compound 1 µM

Nc1ncn(C2CC(O)C(CO)O2)c(=O)n1 (stereo not given) + NC1CCC(NC2CC2c2ccccc2)CC1
IC50 (second compound 0.1 µM): 0.0142 µM | IC50 (second compound 0.316 µM): 0.00971 µM | IC50 (second compound 1 µM): 0.0123 µM | IC50 (second compound 3.16 µM): 0.0116 µM | IC50 (second compound 10 µM): 0.00555 µM | viability, T/C [1]: 88.4% | viability, T/C [2]: 59.4% | viability, T/C [3]: 28.7% | viability, T/C [4]: 14.2% | viability, T/C [5]: 9.84% | viability, T/C [6]: 8.86% | viability, T/C [7]: 84.6% | viability, T/C [8]: 48.6% | viability, T/C [9]: 28.1% | viability, T/C [10]: 15.6% | viability, T/C [11]: 9.97% | viability, T/C [12]: 10.2% | viability, T/C [13]: 83% | viability, T/C [14]: 54.9% | viability, T/C [15]: 27.5% | viability, T/C [16]: 15.4% | viability, T/C [17]: 11.1% | viability, T/C [18]: 10.6% | viability, T/C [19]: 67.7% | viability, T/C [20]: 53.4% | viability, T/C [21]: 28.2% | viability, T/C [22]: 15.5% | viability, T/C [23]: 11.3% | viability, T/C [24]: 9.32% | viability, T/C [25]: 57.4% | viability, T/C [26]: 42.2% | viability, T/C [27]: 24.4% | viability, T/C [28]: 14.4% | viability, T/C [29]: 10.6% | viability, T/C [30]: 10.1%

O=C(C=Cn1cnc(-c2cc(C(F)(F)F)cc(C(F)(F)F)c2)n1)NNc1cnccn1 + NC1CCC(NC2CC2c2ccccc2)CC1
IC50 (second compound 0.1 µM): < 0.00316 µM | IC50 (second compound 0.316 µM): < 0.00316 µM | IC50 (second compound 1 µM): < 0.00316 µM | IC50 (second compound 3.16 µM): < 0.00316 µM | IC50 (second compound 10 µM): < 0.00316 µM | viability, T/C [1]: 45.1% | viability, T/C [2]: 29.7% | viability, T/C [3]: 11.8% | viability, T/C [4]: 3.32% | viability, T/C [5]: 2.51% | viability, T/C [6]: 1.85% | viability, T/C [7]: 38.9% | viability, T/C [8]: 26.9% | viability, T/C [9]: 9.03% | viability, T/C [10]: 2.83% | viability, T/C [11]: 7.44% | viability, T/C [12]: 2.14% | viability, T/C [13]: 37.4% | viability, T/C [14]: 32% | viability, T/C [15]: 10.6% | viability, T/C [16]: 3.06% | viability, T/C [17]: 2.61% | viability, T/C [18]: 6.02% | viability, T/C [19]: 38.8% | viability, T/C [20]: 31% | viability, T/C [21]: 12.4% | viability, T/C [22]: 3.59% | viability, T/C [23]: 6.05% | viability, T/C [24]: 5.81% | viability, T/C [25]: 35.4% | viability, T/C [26]: 30.1% | viability, T/C [27]: 12.3% | viability, T/C [28]: 4.27% | viability, T/C [29]: 8.47% | viability, T/C [30]: 2.53%

O=C(C=Cc1cccc(S(=O)(=O)Nc2ccccc2)c1)NO + NC1CCC(NC2CC2c2ccccc2)CC1
IC50 (second compound 0.1 µM): 0.0816 µM | IC50 (second compound 0.316 µM): 0.0775 µM | IC50 (second compound 1 µM): 0.0673 µM | IC50 (second compound 3.16 µM): 0.0613 µM | IC50 (second compound 10 µM): 0.00978 µM | viability, T/C (second compound 0.1 µM, first compound 0.00949 µM): 90.7% | viability, T/C (second compound 0.1 µM, first compound 0.03 µM): 81.5% | viability, T/C (second compound 0.1 µM, first compound 0.0949 µM): 44.5% | viability, T/C (second compound 0.1 µM, first compound 0.3 µM): 15% | viability, T/C (second compound 0.1 µM, first compound 0.949 µM): 2.65% | viability, T/C (second compound 0.1 µM, first compound 3 µM): 4.46% | viability, T/C (second compound 0.316 µM, first compound 0.00949 µM): 86.7% | viability, T/C (second compound 0.316 µM, first compound 0.03 µM): 73.6% | viability, T/C (second compound 0.316 µM, first compound 0.0949 µM): 45.1% | viability, T/C (second compound 0.316 µM, first compound 0.3 µM): 17% | viability, T/C (second compound 0.316 µM, first compound 0.949 µM): 2.84% | viability, T/C (second compound 0.316 µM, first compound 3 µM): 4.29% | viability, T/C (second compound 1 µM, first compound 0.00949 µM): 74.1% | viability, T/C (second compound 1 µM, first compound 0.03 µM): 65.7% | viability, T/C (second compound 1 µM, first compound 0.0949 µM): 42.9% | viability, T/C (second compound 1 µM, first compound 0.3 µM): 18.7% | viability, T/C (second compound 1 µM, first compound 0.949 µM): 3.4% | viability, T/C (second compound 1 µM, first compound 3 µM): 3.26% | viability, T/C (second compound 3.16 µM, first compound 0.00949 µM): 68.9% | viability, T/C (second compound 3.16 µM, first compound 0.03 µM): 64.4% | viability, T/C (second compound 3.16 µM, first compound 0.0949 µM): 41% | viability, T/C (second compound 3.16 µM, first compound 0.3 µM): 15.4% | viability, T/C (second compound 3.16 µM, first compound 0.949 µM): 3.52% | viability, T/C (second compound 3.16 µM, first compound 3 µM): 3.55% | viability, T/C (second compound 10 µM, first compound 0.00949 µM): 49.8% | viability, T/C (second compound 10 µM, first compound 0.03 µM): 48.4% | viability, T/C (second compound 10 µM, first compound 0.0949 µM): 36.3% | viability, T/C (second compound 10 µM, first compound 0.3 µM): 13.8% | viability, T/C (second compound 10 µM, first compound 0.949 µM): 3.3% | viability, T/C (second compound 10 µM, first compound 3 µM): 2.37%
